Data as given in the supplement of paper PMC10307832.

How the values were obtained:
Assay in all cases: relative viability (nuclei count vs DMSO), 5 days (fraction); higher = more cells survive
[1] = compound: CS(=O)(=O)CCNCc1ccc(-c2ccc3ncnc(Nc4ccc(OCc5cccc(F)c5)c(Cl)c4)c3c2)o1 [Lapatinib] + Nc1nc2[nH]cc(CCc3ccc(C(=O)N[C@@H](CCC(=O)O)C(=O)O)cc3)c2c(=O)[nH]1 [Pemetrexed] (partner 0.2 µM)
How it was run: (§1)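 Dosing by pin tool came one day after lung cancer cell lines were seeded in 1536-well plates, using either one drug or a fixed anchor-drug dose plus five library-drug doses (not always all listed) in √10 steps. After 5 days, nuclei were counted on 4× images. Relative viability is treated-well nuclei count divided by vehicle-well nuclei count, and values are medians of duplicate plates.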

[2] = compound: CS(=O)(=O)CCNCc1ccc(-c2ccc3ncnc(Nc4ccc(OCc5cccc(F)c5)c(Cl)c4)c3c2)o1 [Lapatinib] + C[C@]1(O)C[C@@H](c2nc(-c3ccc4ccc(-c5ccccc5)nc4c3)c3c(N)nccn32)C1 [Linsitinib] (partner 1 µM)
How it was run: as §1

[3] = compound: CC1=NC=CC(=C1)C2=CC=C(C=C2)CC(=O)NC3=CC=C(C=C3)C4=CN=CC=C4 [Wnt-C59] + COc1cc2c(Oc3ccc(NC(=O)C4(C(=O)Nc5ccc(F)cc5)CC4)cc3F)ccnc2cc1OCCCN1CCOCC1 [Foretinib] (partner 0.25 µM)
How it was run: as §1

[4] = compound: CC1=NC=CC(=C1)C2=CC=C(C=C2)CC(=O)NC3=CC=C(C=C3)C4=CN=CC=C4 [Wnt-C59] + CC(=O)c1c(C)c2cnc(Nc3ccc(N4CCNCC4)cn3)nc2n(C2CCCC2)c1=O [Palbociclib] (partner 0.5 µM)
How it was run: as §1

| Cell Line | relative viability ([1]; first compound 0.06325 µM) | relative viability ([1]; first compound 0.2 µM) | relative viability ([1]; first compound 0.6325 µM) | relative viability ([1]; first compound 2 µM) | relative viability ([2]; first compound 0.02 µM) | relative viability ([2]; first compound 0.06325 µM) | relative viability ([2]; first compound 0.2 µM) | relative viability ([2]; first compound 0.6325 µM) | relative viability ([2]; first compound 2 µM) | relative viability ([3]; first compound 0.001 µM) | relative viability ([3]; first compound 0.01 µM) | relative viability ([3]; first compound 0.03162 µM) | relative viability ([3]; first compound 0.1 µM) | relative viability ([4]; first compound 0.001 µM) | relative viability ([4]; first compound 0.01 µM) | relative viability ([4]; first compound 0.03162 µM) | relative viability ([4]; first compound 0.1 µM) | relative viability ([1]; first compound 0.02 µM) |
| --- | --- | --- | --- | --- | --- | --- | --- | --- | --- | --- | --- | --- | --- | --- | --- | --- | --- | --- |
| NCI-H2347 | 0.421 | 0.417 | 0.436 | 0.504 | 0.963 | 0.97 | 1.01 | 0.929 | 0.926 | 0.625 | 1.13 | 0.985 | 1.08 | 0.437 | 0.445 | 0.484 | 0.417 | – |
| NCI-H2405 | 0.977 | – | 1.04 | 1.01 | – | 0.805 | 0.918 | 0.973 | 0.768 | 1.04 | 0.94 | 0.938 | 0.941 | 0.516 | 0.506 | 0.498 | 0.473 | – |
| NCI-H3122 | 0.199 | 0.206 | 0.197 | 0.193 | 0.996 | 0.954 | 0.996 | 1.04 | 0.999 | 0.933 | 0.978 | 0.989 | 0.946 | 0.183 | 0.201 | 0.22 | 0.186 | 0.212 |
| PC-3 [JPC-3] | 1.13 | – | 0.995 | 0.588 | – | 1.01 | 0.993 | 0.994 | 0.873 | 1.05 | 1.12 | 1.14 | 1.05 | 0.498 | 0.532 | 0.505 | 0.512 | – |
| PC-14 | 0.117 | 0.167 | 0.133 | 0.129 | 0.86 | 0.929 | 0.885 | 0.904 | 0.644 | 1.03 | 0.982 | 0.897 | 0.973 | 0.688 | 0.496 | 0.552 | 0.506 | 0.151 |
| RERF-LC-KJ | 0.472 | 0.466 | 0.444 | 0.459 | 0.841 | 0.806 | 0.782 | 0.748 | 0.697 | 0.889 | 0.832 | 0.915 | 0.926 | 1.22 | 1.07 | 1.2 | 1.08 | 0.39 |
| SK-LU-1 | 0.9 | 1.02 | 0.98 | 0.886 | – | 0.783 | 1.19 | 1.01 | 1.24 | 0.791 | 0.796 | 0.87 | 0.792 | 0.356 | 0.343 | 0.423 | 0.359 | 0.961 |
| SK-MES-1 | 0.93 | 0.943 | 0.997 | 0.405 | 1.12 | 1.01 | 0.97 | 0.69 | 0.663 | 0.974 | 0.81 | 0.905 | 0.918 | 0.29 | 0.321 | 0.316 | 0.339 | 0.824 |
| SW 1573 | 0.716 | 0.883 | 0.882 | 0.759 | 0.843 | 0.82 | 0.76 | 0.784 | 0.794 | 1.13 | 1.03 | 0.879 | 0.784 | 0.413 | 0.368 | 0.466 | 0.408 | – |
